Measurements taken from patent US6921840B1 (The Trustees of the University of Pennsylvania, priority 1999, dated 2005).
Several values for one entry are separate records, joined by “and”; a condition that tells them apart may be missing. Equal entries are not always repeated. Where two headings read alike, the source gives them in different places.

Columns and labels:
DAT = DAT (Rattus norvegicus, UniProt P23977); conditions: taken from Ferris et al. 1995; read-out: IC50 for inhibition on substrate uptake, DAT; cited from earlier work
Chain of DAT (P23977 whole entry): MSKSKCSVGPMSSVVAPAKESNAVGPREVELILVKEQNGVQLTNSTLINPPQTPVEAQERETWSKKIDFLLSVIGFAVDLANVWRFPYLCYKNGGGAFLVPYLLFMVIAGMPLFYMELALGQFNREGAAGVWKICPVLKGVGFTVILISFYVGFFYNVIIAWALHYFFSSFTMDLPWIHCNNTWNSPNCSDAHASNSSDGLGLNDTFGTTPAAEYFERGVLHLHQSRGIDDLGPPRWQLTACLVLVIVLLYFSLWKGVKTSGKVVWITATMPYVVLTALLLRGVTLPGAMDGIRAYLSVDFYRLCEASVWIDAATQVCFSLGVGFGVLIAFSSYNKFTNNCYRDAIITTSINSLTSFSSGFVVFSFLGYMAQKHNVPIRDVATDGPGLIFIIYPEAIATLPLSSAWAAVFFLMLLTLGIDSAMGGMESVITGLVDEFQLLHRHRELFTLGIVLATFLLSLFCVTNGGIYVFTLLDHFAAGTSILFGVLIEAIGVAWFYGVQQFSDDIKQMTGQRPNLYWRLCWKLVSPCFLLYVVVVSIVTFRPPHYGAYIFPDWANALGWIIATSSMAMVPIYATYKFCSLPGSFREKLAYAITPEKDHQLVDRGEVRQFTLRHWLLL

serotonin uptake (SERT) = target: T1, serotonin uptake (SERT) (Rattus norvegicus, UniProt P31652); conditions: taken from Ferris et al. 1995; read-out: IC50 for inhibition on substrate uptake, SERT; cited from earlier work
T1 construct: host or cells: rat brain synaptosomes
T1 sequence (P31652 whole entry): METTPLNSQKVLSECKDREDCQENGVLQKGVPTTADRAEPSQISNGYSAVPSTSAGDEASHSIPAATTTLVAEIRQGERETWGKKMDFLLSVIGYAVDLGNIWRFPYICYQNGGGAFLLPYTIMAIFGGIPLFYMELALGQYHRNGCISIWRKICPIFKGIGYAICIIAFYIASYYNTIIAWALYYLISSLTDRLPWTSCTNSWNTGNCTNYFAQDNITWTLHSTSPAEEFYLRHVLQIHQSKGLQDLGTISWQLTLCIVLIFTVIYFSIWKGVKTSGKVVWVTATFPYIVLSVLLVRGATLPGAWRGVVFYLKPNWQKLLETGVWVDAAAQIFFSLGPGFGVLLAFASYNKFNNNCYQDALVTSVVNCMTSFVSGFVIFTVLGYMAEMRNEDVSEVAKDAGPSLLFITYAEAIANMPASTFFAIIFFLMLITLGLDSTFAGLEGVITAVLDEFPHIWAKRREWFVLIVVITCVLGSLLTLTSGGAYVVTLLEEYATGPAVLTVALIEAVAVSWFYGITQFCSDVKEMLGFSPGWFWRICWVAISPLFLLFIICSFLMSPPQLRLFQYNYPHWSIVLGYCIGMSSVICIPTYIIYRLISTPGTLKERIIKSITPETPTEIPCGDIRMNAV

[1] = target: T2, norepinephrine uptake (NET) (Rattus norvegicus, UniProt Q63380); conditions: cited from earlier work
T2 construct: host or cells: rat brain synaptosomes
T2 sequence (Q63380 1-617): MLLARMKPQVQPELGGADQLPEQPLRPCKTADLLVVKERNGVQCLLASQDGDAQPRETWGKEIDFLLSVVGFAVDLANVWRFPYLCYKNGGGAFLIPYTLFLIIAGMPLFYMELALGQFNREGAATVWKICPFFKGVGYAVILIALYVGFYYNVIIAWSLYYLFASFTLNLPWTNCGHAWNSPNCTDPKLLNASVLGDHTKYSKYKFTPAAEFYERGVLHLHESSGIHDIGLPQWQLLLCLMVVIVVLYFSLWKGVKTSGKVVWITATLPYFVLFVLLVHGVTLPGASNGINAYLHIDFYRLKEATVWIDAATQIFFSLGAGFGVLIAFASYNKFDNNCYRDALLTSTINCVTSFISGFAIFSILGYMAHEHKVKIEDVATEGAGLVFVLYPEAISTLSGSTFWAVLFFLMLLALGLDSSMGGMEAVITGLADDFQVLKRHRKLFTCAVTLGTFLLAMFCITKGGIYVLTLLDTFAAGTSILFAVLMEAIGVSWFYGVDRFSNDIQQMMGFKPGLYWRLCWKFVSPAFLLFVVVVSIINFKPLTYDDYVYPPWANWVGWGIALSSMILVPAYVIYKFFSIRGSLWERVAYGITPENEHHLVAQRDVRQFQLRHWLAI

[2] = at 2 to 6 hr, Biegon et al. 1993; cited from earlier work
[3] = In vitro stability of radioiodinated ligand; type: physicochemical
serotonin transporters = assay: SPECT imaging in baboons; conditions: baboon, 120 minutes post-i.v. injection
Text: The acquisition of SPECT images were obtained by a triple-head gamma camera equipped with ultra high resolution fan-beam collimators (Picker Prism 3000). […] The projection images were reconstructed by filtered-back projection. Then, a 3D, low pass Butterworth filter was applied. For uniform attenuation correction, Chang's first order method was used.

[4] = Metabolite analysis of brain tissue; type: in vivo, rat; conditions: rats, 60 min post-injection
Procedure: Sixty minutes after an i.v. injection of 200-300 μCi of [^125I]IDAM into two male rats, the areas corresponding to the hypothalamus region were dissected individually. The tissues were then homogenized in 1.5 ml of 50 mM Tris buffer (pH 7.4) and the homogenates were extracted with ethyl acetate (3×1.5 ml) in the presence of the non-radioactive IDAM (100 μg). The extracted ethyl acetate layers were evaporated to near dryness and the purity of [^125I]IDAM in the condensed extracts was analyzed by HPLC (PRP-1 column; solvent: CH3CN/DMGA: 90/10; flow rate: 1 ml/min). Control samples were performed by adding 5-10 μCi of [^125I]IDAM to hypothalamus tissues followed by the same procedures used for the experimental samples to determine the extraction efficiency.

[5] = Biodistribution in rats after i.v. injection of radioactive tracer; type: in vivo, rat
Procedure: Three or four rats per group were used for each biodistribution study. While under ether anesthesia, 0.2 ml of a saline solution containing 10 μCi of radioactive tracer was injected into the femoral vein. The rats were sacrificed at the time indicated by cardiac excision while under ether anesthesia. Organs of interest were removed and weighed, and the radioactivity was counted using a Packard automatic gamma counter (Model 5000). The percent dose per organ was calculated by a comparison of the tissue counts to counts of 1% of the initial dose (100 times diluted aliquots of the injected material) measured at the same time.
Regional brain distribution in rats was measured after an i.v. injection of the radioactive tracer. Samples from different brain regions [cortex (CX), striatum (ST), hippocampus (HP), cerebellum (CB) and hypothalamus (HY)] were dissected, weighed and counted. The percentage dose/g of each sample was calculated by comparing sample counts with the counts of the diluted initial dose described above. The ratio of specific binding (SB) in each region was obtained by dividing the difference of each region from the cerebellum (percentage dose/g) with that of the cerebellum [(region-CB)/CB].

SERT [6] = target: T3, SERT (Rattus norvegicus, UniProt P31652); assay: [125I]IDAM saturation binding to rat frontal cortical membrane homogenates; design: The frontal cortex of rat brain were dissected and homogenized in 30 volumes of buffer; from tissue; host or cells: rat frontal cortex membrane homogenates (male Sprague-Dawley rats, control and PCA-lesioned)
T3 sequence (P31652 whole entry): as the sequence (P31652 whole entry) above
Procedure: The homogenates were centrifuged at 20,000 g for 20 min. The resulting pellets were then re-suspended and recentrifuged. The final pellets were suspended in the same buffer and used for in vitro binding assays.
Binding assays were performed in glass tubes (12×75 mm) with a final volume of 0.5 ml.
Various inhibitors were serially diluted with the buffer containing 0.1% BSA to overcome the stickiness and loss due to dilution. […] Incubation was carried out for 60 min at room temperature and then terminated by separation of bound from free radioligand by filtration through glass fiber filters (Schleicher & Schuell No. 25, Keene, N.H.) presoaked with 1% polyethylenimine. The filters were then washed three times with 3 ml of ice-cold […] Tris buffer and counted in a gamma counter (Packard 5000) with 70% efficiency. To study the effect of […], the homogenates were prepared in a sodium-free 50 mM Tris-HCl/5 mM KCl buffer.
Ten rats were divided into two-groups, and they were injected daily with PCA (8 mg/kg, i.p.) or saline for 3 consecutive days, respectively. The animals were sacrificed 5 days after the last injection and the frontal cortical membrane homogenates were prepared.

SERT [7] = target: T3, SERT
Procedure: At 60 min post i.v. injection, the animals were sacrificed by cardiac excision while under ether anesthesia. The brains were rapidly removed, placed in embedding medium (Tissue Tek, Miles Laboratory, Elkhart, Ind.) and frozen with powdered dry ice. After reaching equilibrium at −20° C. consecutive 20 μm coronal sections were cut on a cryostat microtome (Hacker Instruments, Fairfield, N.J.) thaw-mounted on microscope slides, and air-dried at room temperature. […] The microscale standards were calibrated with tissue mash standards for the value conversion to nCi/mg protein. The exposed film was developed by a Kodak automatic film processor. […] The brain sections of the pretreated rats were processed following the same procedures described above for the normal untreated rats.

[8] = Partition coefficient octanol/buffer; type: physicochemical; conditions: n-octanol and phosphate buffer, pH 7.4
[9] = PCA-lesioned rats, frontal cortical membranes
[10] = control rats, frontal cortical membranes

## CN(C)Cc1ccccc1Sc1ccc(Cl)cc1CO [403U76, 5-chloro-2-((2-((dimethyl-amino)methyl)phenyl)thio)benzyl alcohol]
DAT
  IC50: > 1000 nM
Serotonin uptake (SERT)
  IC50: 2.1 ± 0.4 nM
[1]; rat brain synaptosomes
  Ki: 55 nM
[1]; taken from Ferris et al. 1995, read-out: IC50 for inhibition on substrate uptake, NET
  IC50: 55 ± 10 nM

## O=[N+]([O-])c1ccc2nc(N3CCNCC3)ccc2c1I [[^123I]5-I-6-NO2-quipazine, 5-iodo-6-nitroquipazine]
[2]
  specific regional binding ratio, hypothalamus: 4.0

## CN(C)Cc1ccccc1Sc1ccc(I)cc1CO [[^123I]IDAM]
[3]; prolonged standing (>20 hr) at 0-4° C. in saline solution
  in vitro stability: no decomposition observed
Serotonin transporters
  ratio of MB/CER uptake: 2.4

## CN(C)Cc1ccccc1Sc1ccc([125I])cc1CO [[^125I]IDAM]
[4]
  unmetabolized tracer recovered from hypothalamus region: > 95%
[5]
  half-time of clearance from the brain regions: less than 60 min
[5]; 2 min
  % dose/g CEREBELLUM: 1.377 ± 0.479 % dose/g
  % dose/g CORTEX: 2.353 ± 0.444 % dose/g
  % dose/g HIPPOCAMPUS: 1.485 ± 0.263 % dose/g
  % dose/g HYPOTHALAMUS: 1.782 ± 0.412 % dose/g
  % dose/g STRIATUM: 1.377 ± 0.344 % dose/g
  % dose/organ BLOOD: 7.619 ± 0.41 % dose/organ
  % dose/organ BRAIN: 2.44 % dose/organ and 2.44 ± 0.34 % dose/organ
  % dose/organ HEART: 1.303 ± 0.10 % dose/organ
  % dose/organ KIDNEY: 6.54 ± 0.26 % dose/organ
  % dose/organ LIVER: 6.46 ± 1.18 % dose/organ
  % dose/organ LUNG: 10.42 ± 1.36 % dose/organ
  % dose/organ MUSCLE: 19.06 ± 8.51 % dose/organ
  % dose/organ SKIN: 3.27 ± 0.48 % dose/organ
  % dose/organ SPLEEN: 0.31 ± 0.08 % dose/organ
  SB: specific binding = (region-CB)/CB, CORTEX: 0.709
  SB: specific binding = (region-CB)/CB, HIPPOCAMPUS: 0.079
  SB: specific binding = (region-CB)/CB, HYPOTHALAMUS: 0.294
  SB: specific binding = (region-CB)/CB, STRIATUM: 0.000
[5]; 2 min post-injection
  total radioactivity recovered from the major organs: less than 60 % of total injected dose
[5]; 30 min
  % dose/g CEREBELLUM: 0.416 ± 0.045 % dose/g
  % dose/g CORTEX: 0.820 ± .0108 % dose/g
  % dose/g HIPPOCAMPUS: 0.832 ± 0.048 % dose/g
  % dose/g HYPOTHALAMUS: 0.918 ± 0.113 % dose/g
  % dose/g STRIATUM: 0.875 ± 0.086 % dose/g
  % dose/organ BLOOD: 7.63 ± 1.03 % dose/organ
  % dose/organ BRAIN: 1.174 ± 0.062 % dose/organ
  % dose/organ HEART: 0.27 ± 0.02 % dose/organ
  % dose/organ KIDNEY: 3.48 ± 0.643 % dose/organ
  % dose/organ LIVER: 4.709 ± 0.347 % dose/organ
  % dose/organ LUNG: 1.78 ± 0.08 % dose/organ
  % dose/organ MUSCLE: 16.27 ± 0.82 % dose/organ
  % dose/organ SKIN: 6.121 ± 0.536 % dose/organ
  % dose/organ SPLEEN: 0.279 ± 0.026 % dose/organ
  SB: specific binding = (region-CB)/CB, CORTEX: 0.972
  SB: specific binding = (region-CB)/CB, HIPPOCAMPUS: 1.002
  SB: specific binding = (region-CB)/CB, HYPOTHALAMUS: 1.208
  SB: specific binding = (region-CB)/CB, STRIATUM: 1.104
[5]; 60 min
  % dose/g CEREBELLUM: 0.153 ± 0.019 % dose/g
  % dose/g CORTEX: 0.310 ± 0.060 % dose/g
  % dose/g HIPPOCAMPUS: 0.355 ± 0.016 % dose/g
  % dose/g HYPOTHALAMUS: 0.422 ± 0.066 % dose/g
  % dose/g STRIATUM: 0.257 ± 0.042 % dose/g
  % dose/organ BLOOD: 6.380 ± 0.729 % dose/organ
  % dose/organ BRAIN: 0.50 % dose/organ and 0.503 ± 0.027 % dose/organ
  % dose/organ HEART: 0.187 ± 0.008 % dose/organ
  % dose/organ KIDNEY: 1.993 ± 0.351 % dose/organ
  % dose/organ LIVER: 4.120 ± 0.766 % dose/organ
  % dose/organ LUNG: 0.931 ± 0.086 % dose/organ
  % dose/organ MUSCLE: 6.775 ± 0.145 % dose/organ
  % dose/organ SKIN: 7.538 ± 0.127 % dose/organ
  % dose/organ SPLEEN: 0.167 ± 0.027 % dose/organ
  SB: specific binding = (region-CB)/CB, CORTEX: 1.024
  SB: specific binding = (region-CB)/CB, HIPPOCAMPUS: 1.313
  SB: specific binding = (region-CB)/CB, HYPOTHALAMUS: 1.75
  SB: specific binding = (region-CB)/CB, STRIATUM: 0.673
[5]; 120 min
  % dose/g CEREBELLUM: 0.053 ± 0.005 % dose/g
  % dose/g CORTEX: 0.89 ± 0.018 % dose/g
  % dose/g HIPPOCAMPUS: 0.134 ± 0.011 % dose/g
  % dose/g HYPOTHALAMUS: 0.142 ± 0.027 % dose/g
  % dose/g STRIATUM: 0.105 ± 0.052 % dose/g
  % dose/organ BLOOD: 4.160 ± 0.150 % dose/organ
  % dose/organ BRAIN: 0.17 % dose/organ and 0.168 ± 0.029 % dose/organ
  % dose/organ HEART: 0.114 ± 0.023 % dose/organ
  % dose/organ KIDNEY: 0.832 ± 0.071 % dose/organ
  % dose/organ LIVER: 2.722 ± 0.308 % dose/organ
  % dose/organ LUNG: 0.422 ± 0.055 % dose/organ
  % dose/organ MUSCLE: 4.714 ± 0.977 % dose/organ
  % dose/organ SKIN: 6.716 ± 1.304 % dose/organ
  % dose/organ SPLEEN: 0.066 ± 0.008 % dose/organ
  SB: specific binding = (region-CB)/CB, CORTEX: 0.674
  SB: specific binding = (region-CB)/CB, HIPPOCAMPUS: 1.524
  SB: specific binding = (region-CB)/CB, HYPOTHALAMUS: 1.679
  SB: specific binding = (region-CB)/CB, STRIATUM: 0.967
[5]; 240 min
  % dose/g CEREBELLUM: 0.012 ± 0.000 % dose/g
  % dose/g CORTEX: 0.017 ± 0.003 % dose/g
  % dose/g HIPPOCAMPUS: 0.020 ± 0.003 % dose/g
  % dose/g HYPOTHALAMUS: 0.022 ± 0.011 % dose/g
  % dose/g STRIATUM: 0.018 ± 0.002 % dose/g
  % dose/organ BLOOD: 2.246 ± 0.303 % dose/organ
  % dose/organ BRAIN: 0.033 ± 0.002 % dose/organ
  % dose/organ HEART: 0.048 ± 0.004 % dose/organ
  % dose/organ KIDNEY: 0.488 ± 0.065 % dose/organ
  % dose/organ LIVER: 1.469 ± 0.189 % dose/organ
  % dose/organ LUNG: 0.220 ± 0.018 % dose/organ
  % dose/organ MUSCLE: 2.818 ± 0.208 % dose/organ
  % dose/organ SKIN: 3.851 ± 0.073 % dose/organ
  % dose/organ SPLEEN: 0.024 ± 0.004 % dose/organ
  SB: specific binding = (region-CB)/CB, CORTEX: 0.475
  SB: specific binding = (region-CB)/CB, HIPPOCAMPUS: 0.705
  SB: specific binding = (region-CB)/CB, HYPOTHALAMUS: 0.865
  SB: specific binding = (region-CB)/CB, STRIATUM: 0.508
SERT [6]; [9]
  Bmax of [125I]IDAM binding: 20±7 fmol/mg protein
  Kd: 0.05 ± 0.15 nM
  Kd of [125I]IDAM binding: no significant change
SERT [6]; after destruction of serotonergic neurons by PCA
  loss of [125I]IDAM binding to rat cortical membranes: 90%
SERT [6]; at Kd value, rat frontal cortical membranes
  nonspecific binding: < 5%
SERT [6]; [10]
  Bmax of [125I]IDAM binding: 272±30 fmol/mg protein
  Kd: 0.25 nM and 0.2 nM
[3]; in 50% ethanol for up to two months after radioiodination
  stability: radiochemical purity determined by HPLC: > 95%
SERT [7]; HP
  nonspecific binding (non-paroxetine blockable): more than 70%
SERT [7]; hippocampal regions and several cortical regions
  percentage of specific binding (paroxetine blockable): less than 30%
SERT [7]; interperduncular nucleus, median raphe and dorsomedial hypothalamus
  percentage of specific binding (paroxetine blockable): more than 95%
[8]
  partition coefficient (PC): 473
[8]; read-out: partition coefficient (PC) (converted)
  logD: 2.67
